In article PMC4344604, “Synthesis and Biological Evaluation of Carbocyclic Analogues of Pachastrissamine” (Marine Drugs, 2015):
Read-outs that look alike come from different tables or passages of the source.

Tests used:
SphK2 = biological target: T1, SphK2 (Homo sapiens, UniProt Q9NRA0); assay: ADP-Glo kinase assay; format: biochemical
T1 construct: commercial enzyme from BPS Bioscience
T1 sequence (Q9NRA0 1-654): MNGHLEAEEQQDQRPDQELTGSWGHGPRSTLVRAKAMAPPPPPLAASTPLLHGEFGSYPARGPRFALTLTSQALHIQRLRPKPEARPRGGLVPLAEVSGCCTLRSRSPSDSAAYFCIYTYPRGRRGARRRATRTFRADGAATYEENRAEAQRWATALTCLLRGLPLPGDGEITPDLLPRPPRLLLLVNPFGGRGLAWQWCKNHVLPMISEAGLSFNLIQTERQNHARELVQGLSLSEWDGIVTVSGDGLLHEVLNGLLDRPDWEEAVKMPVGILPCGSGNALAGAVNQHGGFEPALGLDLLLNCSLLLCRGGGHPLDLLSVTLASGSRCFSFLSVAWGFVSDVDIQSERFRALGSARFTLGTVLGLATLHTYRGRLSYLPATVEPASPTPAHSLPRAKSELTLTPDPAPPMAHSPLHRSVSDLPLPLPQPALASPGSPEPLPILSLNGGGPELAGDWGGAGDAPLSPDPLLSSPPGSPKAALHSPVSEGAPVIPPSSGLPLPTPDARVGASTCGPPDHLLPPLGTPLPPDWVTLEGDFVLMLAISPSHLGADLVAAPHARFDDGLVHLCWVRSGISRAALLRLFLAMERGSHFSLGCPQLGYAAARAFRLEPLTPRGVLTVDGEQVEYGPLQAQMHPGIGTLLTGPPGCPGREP
Excerpt: ADP-Glo kinase assay on SphK2

SphK1 = biological target: T2, SphK1 (Homo sapiens, UniProt Q9NYA1); assay: ADP-Glo kinase assay; format: biochemical
T2 construct: commercial enzyme from BPS Bioscience; human given only for the docking structure 3VZB
T2 sequence (Q9NYA1 whole entry): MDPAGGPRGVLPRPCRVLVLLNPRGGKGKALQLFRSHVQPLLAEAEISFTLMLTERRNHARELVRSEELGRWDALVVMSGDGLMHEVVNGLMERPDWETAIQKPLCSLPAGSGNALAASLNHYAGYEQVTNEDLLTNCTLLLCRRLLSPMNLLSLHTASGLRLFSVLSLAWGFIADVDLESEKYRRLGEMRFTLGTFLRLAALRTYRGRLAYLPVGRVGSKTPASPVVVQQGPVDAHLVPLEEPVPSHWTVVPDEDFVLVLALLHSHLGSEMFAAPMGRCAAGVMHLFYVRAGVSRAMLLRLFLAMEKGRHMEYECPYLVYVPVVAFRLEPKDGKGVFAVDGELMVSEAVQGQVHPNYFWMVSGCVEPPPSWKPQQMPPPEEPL

IC50 (SphK2)	IC50 (SphK1)	IC50 (SphK2; 1 µM sphingosine, 150 µM ATP, 5 mM MgCl2, pH 7.2, 1% DMSO, 1 h, room temperature)	Structure (SMILES)
> 100 µM	58.2 µM	–	CCCCCCCCCCCC[C@@H]1CC[C@H](N)[C@@H]1O [4a, (1R,2S,5R)-2-Amino-5-dodecylcyclopentan-1-ol]
> 100 µM	41.3 µM	–	CCCCCCCCCCCCCCCC[C@@H]1CC[C@H](N)[C@@H]1O [4c, (1R,2S,5R)-2-Amino-5-hexadecylcyclopentan-1-ol]
20.1 µM	7.5 µM	–	CCCCCCCCCCCCCC[C@@H]1CC[C@H](N)[C@@H]1O [4b, (1R,2S,5R)-2-Amino-5-tetradecylcyclopentan-1-ol]
–	–	19.9 µM	CCCCCCCCCCCCC/C=C/[C@@H](O)[C@H](CO)N(C)C [N,N-dimethylsphingosine]
41.8 µM	12 µM	–	CCCCCCCCCCCCCC[C@@H]1OC[C@H](N)[C@@H]1O [compound 1, pachastrissamine]
